Counter-ions that a name gives are not always drawn.
Experiments:
[1] = molecular target: class A β-lactamases TEM-1 from E. coli (Escherichia coli, UniProt P62593); experiment: β-Lactamase inhibition, spectrophotometric nitrocefin hydrolysis assay, TEM-1; type: biochemical; settings: enzyme 4.3 nM; 10 minutes preincubation at 25° C.; nitrocefin 50 μg/ml; 50 mM PO4, pH 7.0
Method: (§1) IC50 Determination for the Penem Inhibitor
(§2) β-Lactamase inhibitory activity of the penem inhibitors was determined spectrophotometrically as described by Bush et al., [Bush, K., Macalintal, C., Rasmussen, B. A., Lee, V. and Yang, Y. Antimicrobial Agents and Chemotherapy 1993, 37, 851]. Homogeneously purified class A β-lactamases TEM-1 from E. coli and Imi-1 from Enterobacter cloacae, class B enzyme CcrA from Bacteroides fragilis and class C enzyme AmpC from Enterobacter cloaca were employed in the assay. The enzyme concentrations for TEM-1, Imi-1, CcrA and AmpC were 4.3, 7.1, 1.2 and 2.1 nM, respectively. A wide range of inhibitor concentrations were prepared in 50 mM PO4, pH 7.0 to include the possible IC50 values. The substrate used to initiate the enzyme reaction was nitrocefin at 50 μg/ml in the same buffer as the inhibitor. Initially the enzyme and inhibitor (20 μl each) were preincubated for 10 minutes at 25° C. prior to the addition of 160 μl volume of nitrocefin. Initial rates of hydrolysis were monitored for 5 minutes at 495 nm using a Molecular Devices Spectra Max 250 with kinetic protocol of SoftMax Program. Readings from the Spectra Max 250 were exported and transferred to Microsoft Excel. The percent of inhibition of each inhibitor concentration was calculated based on the control enzyme activity. The inhibitor concentration that caused a 50% reduction in the enzymatic activity (IC50) was determined graphically.

[2] = molecular target: class A β-lactamase Imi-1 from Enterobacter cloacae (Enterobacter cloacae, UniProt Q46991); experiment: β-Lactamase inhibition, spectrophotometric nitrocefin hydrolysis assay, Imi-1; type: biochemical; settings: enzyme 7.1 nM; 10 minutes preincubation at 25° C.; nitrocefin 50 μg/ml; 50 mM PO4, pH 7.0
Method: as §1, §2

[3] = molecular target: class B enzyme CcrA from Bacteroides fragilis (Bacteroides fragilis, UniProt P25910); experiment: β-Lactamase inhibition, spectrophotometric nitrocefin hydrolysis assay, CcrA; type: biochemical; settings: enzyme 1.2 nM; 10 minutes preincubation at 25° C.; nitrocefin 50 μg/ml; 50 mM PO4, pH 7.0; read-out: IC50 (nM) Ccr-A
Method: as §1, §2

[4] = molecular target: class C enzyme AmpC from Enterobacter cloaca (Enterobacter cloacae, UniProt P05364); experiment: β-Lactamase inhibition, spectrophotometric nitrocefin hydrolysis assay, AmpC; type: biochemical; settings: enzyme 2.1 nM; 10 minutes preincubation at 25° C.; nitrocefin 50 μg/ml; 50 mM PO4, pH 7.0; read-out: IC50 (nM) Amp-C
Method: as §1, §2

[5] = Comparative thermal stability in a solid state, residual ratio checked by HPLC; type: physicochemical; settings: for Residual Ratio (%): Temp. 40° C. in a solid state, HPLC
Description: One important aspect of the present invention relates to the use of stable bromopenem intermediate 16. The stability of the intermediate is relevant to the aldol condensation step where the decomposition is minimized [as well as to the shelf life stability]. In this invention the key intermediate 16, where R=para-Nitrobenzyl group is a stable and a crystalline intermediate. […] (Table 1) This remarkable stability of intermediate 16 enhances the shelf-life time of the compound as well as the scale-up feasibility. As mentioned above, protection of carboxyl group with para-Nitrobenzyl group reduces the number of steps in the present process of preparing the final compound of structure I. The crystalline nature of the intermediate was established by X-ray diffraction studies.
Column: Inertsil SIL 100-5 4.6×150 mm (GL Science Inc.)
Mobile phase; Ethylacetae: n-hexane (10:35 vv)
Wave length: […]; Flow rate: 1.0 ml/min @ Room temperature.

Sequence of class B enzyme CcrA from Bacteroides fragilis (P25910 19-249): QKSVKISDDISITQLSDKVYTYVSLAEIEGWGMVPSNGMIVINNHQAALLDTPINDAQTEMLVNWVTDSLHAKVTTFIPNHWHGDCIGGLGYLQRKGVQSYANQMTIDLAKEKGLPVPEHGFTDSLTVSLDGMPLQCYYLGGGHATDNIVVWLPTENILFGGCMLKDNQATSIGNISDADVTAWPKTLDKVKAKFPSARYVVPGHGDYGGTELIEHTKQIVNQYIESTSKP
Sequence of class A β-lactamases TEM-1 from E. coli (P62593 24-286 limits assumed): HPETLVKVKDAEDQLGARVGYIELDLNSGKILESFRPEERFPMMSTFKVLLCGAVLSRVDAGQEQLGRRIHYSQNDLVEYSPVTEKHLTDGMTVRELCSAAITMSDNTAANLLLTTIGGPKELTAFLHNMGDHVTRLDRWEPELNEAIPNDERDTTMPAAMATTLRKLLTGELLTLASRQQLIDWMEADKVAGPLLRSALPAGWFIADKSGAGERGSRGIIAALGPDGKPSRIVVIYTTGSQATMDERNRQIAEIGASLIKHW
Sequence of class C enzyme AmpC from Enterobacter cloaca (P05364 21-381): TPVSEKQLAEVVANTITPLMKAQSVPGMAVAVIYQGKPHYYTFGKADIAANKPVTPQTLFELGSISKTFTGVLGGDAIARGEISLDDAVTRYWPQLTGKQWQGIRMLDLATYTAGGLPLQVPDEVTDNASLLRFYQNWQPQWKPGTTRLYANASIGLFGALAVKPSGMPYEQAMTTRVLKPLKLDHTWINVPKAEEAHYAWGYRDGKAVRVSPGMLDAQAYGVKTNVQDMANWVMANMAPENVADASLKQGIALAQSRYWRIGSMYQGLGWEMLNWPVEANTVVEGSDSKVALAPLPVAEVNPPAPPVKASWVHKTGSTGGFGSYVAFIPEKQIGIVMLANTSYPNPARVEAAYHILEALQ
Sequence of class A β-lactamase Imi-1 from Enterobacter cloacae (Q46991 entry or part of it): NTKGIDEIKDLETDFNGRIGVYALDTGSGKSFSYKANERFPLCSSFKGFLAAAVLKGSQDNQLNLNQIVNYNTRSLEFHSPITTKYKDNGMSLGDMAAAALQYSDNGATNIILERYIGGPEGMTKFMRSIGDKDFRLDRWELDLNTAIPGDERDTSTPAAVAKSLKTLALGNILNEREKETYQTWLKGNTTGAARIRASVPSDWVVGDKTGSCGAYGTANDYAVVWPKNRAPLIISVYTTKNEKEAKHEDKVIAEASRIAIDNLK

Compound | IC50 [1] [nM] | IC50 [2] [nM] | IC50 [3] [nM] | IC50 [4] [nM] | comparative thermal stability (in words) ([5]; intermediate 16 versus intermediate Q) | Residual Ratio (%) ([5]; Day 0) | Residual Ratio (%) ([5]; Day 1) | Residual Ratio (%) ([5]; Day 2) | Residual Ratio (%) ([5]; Day 4) | Residual Ratio (%) ([5]; Day 7) | Residual Ratio (%) ([5]; Day 14)
O=C(O)C1=CS[C@@H]2/C(=C\c3c[nH]c(Cc4ccccc4)n3)C(=O)N12 [Example 3, (5R), (6Z)-6-(2-Benzyl-1H-imidazol-4-ylmethylene)-7-oxo-4-thia-1-aza-bicyclo[3.2.0]hept-2-ene-2-carboxylic Acid Sodium Salt] | 1.2 | 1300 | 190 | 0.8 | – | – | – | – | – | – | –
O=C(O)C1=CS[C@@H]2/C(=C\c3c[nH]c(-c4nccs4)n3)C(=O)N12 [Example 4, (5R), (6Z)-6-(2-thiazol-2-yl-1H-imidazol-4-ylmethylene)-7-oxo-4-thia-1-aza-bicyclo[3.2.0]hept-2-ene-2-carboxylic Acid Sodium Salt] | 0.4 | 5.8 | 230 | 2.3 | – | – | – | – | – | – | –
O=C(O)C1=CS[C@@H]2/C(=C\c3c[nH]c(-c4ccccc4)n3)C(=O)N12 [Example 6, (5R), (6Z)-6-(2-phenyl-1H-imidazol-4-ylmethylene)-7-oxo-4-thia-1-aza-bicyclo[3.2.0]hept-2-ene-2-carboxylic Acid] | 5.6 | 11 | 220 | 2.9 | – | – | – | – | – | – | –
O=C(OCc1ccc([N+](=O)[O-])cc1)C1=CS[C@@H]2[C@@H](Br)C(=O)N12 [Example 16] | – | – | – | – | more stable than the intermediate Q | – | – | – | – | – | –
O=C(OCc1ccc([N+](=O)[O-])cc1)C1=CS[C@@H]2[C@@H](Br)C(=O)N12 [Formula 16, 4-nitrobenzyl (5R,6S)-6-bromopenem-3-carboxylate] | – | – | – | – | – | 100.0 | 100.0 | 100.0 | 100.0 | 98.7 | 98.4
COc1ccc(COC(=O)C2=CS[C@@H]3[C@@H](Br)C(=O)N23)cc1 [Formula Q, reference compound] | – | – | – | – | – | 100.0 | 99.7 | 95.3 | 72.9 | 69.8 | –
(5R), (6Z)-6-(1-Methyl-2-thiazol-2-yl-1H-imidazol-4-ylmethylene)-7-oxo-4-thia-1-aza-bicyclo[3.2.0]hept-2-ene-2-carboxylic Acid Sodium Salt [Example 5] | 5.2 | 68 | 260 | 5.6 | – | – | – | – | – | – | –
(5R), (6Z)-6-(3,1′-Dimethyl-3H,1′H-[2,4′]biimidazolyl-4-ylmethylene)-7-oxo-4-thia-1-aza-bicyclo[3.2.0]hept-2-ene-2-carboxylic Acid Sodium Salt [Example 2] | 4.1 | 6 | 250 | 2.1 | – | – | – | – | – | – | –

Reference: patent US20040053913A1, “Process for preparing 6-alkylidene penem derivatives” (priority 2002, published 2004)
